Results taken from PubChem BioAssay AID248 (DTP/NCI, 2004).
Toxic doses and inconclusive results are not listed. No stated cut-off is given here; in the data, active means T/C of 150% or more; inactive means T/C below 125%.

System: L1210 leukemia ip in BDF1 mice, survival T/C
Experiment: NCI In Vivo Anticancer Drug Screen. Data for tumor model L1210 Leukemia (intraperitoneal) in B6D2F1 (BDF1) mice
Settings: endpoint: mean survival time, higher = longer survival
Procedure, shortened: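 Antitumor effect is assessed in tumor-bearing animals. Survival in the compound arm is compared with a vehicle-dosed control arm and expressed as their quotient.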

[1] = dose: 100.0 mg/kg/injection, schedule: Q01DX001 (ip), vehicle: saline
[2] = dose: 200.0 mg/kg/injection, schedule: Q01DX001 (ip), vehicle: saline
[3] = dose: 400.0 mg/kg/injection, schedule: Q01DX001 (ip), vehicle: saline
[4] = dose: 50.0 mg/kg/injection, schedule: Q01DX009 (ip), vehicle: saline with Tween-80
[5] = dose: 100.0 mg/kg/injection, schedule: Q01DX009 (ip), vehicle: saline with Tween-80
[6] = dose: 200.0 mg/kg/injection, schedule: Q01DX009 (ip), vehicle: saline with Tween-80
[7] = dose: 400.0 mg/kg/injection, schedule: Q01DX009 (ip), vehicle: saline with Tween-80
[8] = dose: 100.0 mg/kg/injection, schedule: Q04DX003 (ip), vehicle: saline with Tween-80
[9] = dose: 200.0 mg/kg/injection, schedule: Q04DX003 (ip), vehicle: saline with Tween-80

Measured: T/C

[C-]#[N+]CCCCCC
inactive: dose: 3.12 mg/kg/injection, schedule: Q04DX003 (sc), vehicle: olive oil, sesame oil, peanut oil 101 % of control | dose: 4.21 mg/kg/injection, schedule: Q01DX009 (ip), vehicle: olive oil, sesame oil, peanut oil 92 % of control | dose: 6.25 mg/kg/injection, schedule: Q04DX003 (sc), vehicle: olive oil, sesame oil, peanut oil 93 % of control | dose: 8.43 mg/kg/injection, schedule: Q01DX009 (sc), vehicle: olive oil, sesame oil, peanut oil 112 % of control | dose: 12.5 mg/kg/injection, schedule: Q04DX003 (sc), vehicle: olive oil, sesame oil, peanut oil 88 % of control | dose: 16.87 mg/kg/injection, schedule: Q01DX009 (sc), vehicle: olive oil, sesame oil, peanut oil 112 % of control | dose: 18.0 mg/kg/injection, schedule: Q04DX003 (sc), vehicle: other 104 % of control | dose: 28.0 mg/kg/injection, schedule: Q04DX003 (sc), vehicle: other 101 % of control | dose: 40.0 mg/kg/injection, schedule: Q04DX003 (sc), vehicle: other 108 % of control | dose: 60.0 mg/kg/injection, schedule: Q04DX003 (sc), vehicle: olive oil, sesame oil, peanut oil 111 % of control | dose: 90.0 mg/kg/injection, schedule: Q04DX003 (sc), vehicle: olive oil, sesame oil, peanut oil 100 % of control | dose: 135.0 mg/kg/injection, schedule: Q04DX003 (sc), vehicle: olive oil, sesame oil, peanut oil 109 % of control

O=CNC1CCCCC1c1ccc(C2CCCCC2NC=O)cc1 (stereo unspecified)
inactive: [1] 97 % of control

CCCCNC(=O)c1cc(NC(=O)Nc2ccc(C3=NCCN3)cc2)cc(NC(=O)Nc2ccc(C3=NCCN3)cc2)c1
inactive: dose: 8.0 mg/kg/injection, schedule: Q01DX Z (ip), vehicle: carboxymethylcellulose (CMC) 122 % of control | dose: 16.0 mg/kg/injection, schedule: Q01DX Z (ip), vehicle: carboxymethylcellulose (CMC) 117 % of control | dose: 62.0 mg/kg/injection, schedule: Q01DX Z (ip), vehicle: carboxymethylcellulose (CMC) 122 % of control | dose: 125.0 mg/kg/injection, schedule: Q01DX Z (ip), vehicle: carboxymethylcellulose (CMC) 122 % of control | dose: 250.0 mg/kg/injection, schedule: Q01DX Z (ip), vehicle: carboxymethylcellulose (CMC) 110 % of control

O=S(=O)(C1CC1c1ccccc1)N1CCOCC1 (stereo unspecified)
inactive: [1] 101 % of control | [2] 106 % of control | [3] 95 % of control

COc1cc(N=Nc2ccc([N+](=O)[O-])cc2)c(OC)cc1N
inactive: dose: 5.0 mg/kg/injection, schedule: Q01DX001 (ip), vehicle: other 98 % of control | dose: 10.0 mg/kg/injection, schedule: Q01DX001 (ip), vehicle: other 101 % of control | dose: 20.0 mg/kg/injection, schedule: Q01DX001 (ip), vehicle: other 98 % of control | dose: 40.0 mg/kg/injection, schedule: Q01DX001 (ip), vehicle: other 101 % of control

CCOC(=O)c1nn(C)c(=S)[nH]c1=O
inactive: dose: 100.0 mg/kg/injection, schedule: Q01DX Z (ip), vehicle: methylcellulose (MC) 92 % of control | dose: 200.0 mg/kg/injection, schedule: Q01DX Z (ip), vehicle: methylcellulose (MC) 90 % of control

O=C1CCCCCC/C(=N/O)CCCO1
inactive: dose: 100.0 mg/kg/injection, schedule: Q01DX001 (ip), vehicle: saline with Tween-80 94 % of control | dose: 200.0 mg/kg/injection, schedule: Q01DX001 (ip), vehicle: saline with Tween-80 97 % of control | dose: 400.0 mg/kg/injection, schedule: Q01DX001 (ip), vehicle: saline with Tween-80 97 % of control

CCOC(=O)C(CC(C)C)NC(=O)CCCCSc1ncnc2nc[nH]c12 (stereo unspecified)
inactive: dose: 25.0 mg/kg/injection, schedule: Q01DX009 (ip), vehicle: saline with Tween-80 110 % of control | dose: 25.0 mg/kg/injection, schedule: Q01DX009 (oral), vehicle: saline with Tween-80 100 % of control | [4] 112 % of control | dose: 50.0 mg/kg/injection, schedule: Q01DX009 (oral), vehicle: saline with Tween-80 92 % of control | [5] 100 % of control | dose: 100.0 mg/kg/injection, schedule: Q01DX009 (oral), vehicle: saline with Tween-80 100 % of control | [6] 98 % of control | dose: 200.0 mg/kg/injection, schedule: Q01DX009 (oral), vehicle: saline with Tween-80 98 % of control | [7] 115 % of control | dose: 400.0 mg/kg/injection, schedule: Q01DX009 (oral), vehicle: saline with Tween-80 107 % of control | dose: 800.0 mg/kg/injection, schedule: Q01DX009 (oral), vehicle: saline with Tween-80 111 % of control

O=C(CC1CC2CCC1C2)Nc1ccccc1 (stereo unspecified)
inactive: [1] 96 % of control | [2] 111 % of control | [3] 100 % of control

CC(=O)OCC(C)(C)COS(=O)(=O)c1ccc(Br)cc1
inactive: [4] 100 % of control | [5] 89 % of control | [6] 89 % of control

CC(C)(O)C(CO)c1ccccc1 (stereo unspecified)
inactive: [1] 96 % of control

COc1ccc(C(=O)Nc2ccc(C3=NCCN3)cc2)cc1C(=O)Nc1ccc(C2=NCCN2)cc1
active: dose: 30.0 mg/kg/injection, schedule: Q01DX Z (ip), vehicle: saline 181 % of control | dose: 60.0 mg/kg/injection, schedule: Q01DX Z (ip), vehicle: saline 266 % of control
inactive: dose: 3.75 mg/kg/injection, schedule: Q01DX Z (ip), vehicle: saline 101 % of control | dose: 7.5 mg/kg/injection, schedule: Q01DX Z (ip), vehicle: saline 116 % of control | dose: 120.0 mg/kg/injection, schedule: Q01DX Z (ip), vehicle: saline 110 % of control

O=c1[nH]cnc2c1nc1n2CCC1
inactive: [4] 93 % of control | [5] 90 % of control | [8] 105 % of control | [6] 88 % of control | [9] 102 % of control

Cc1nn(C)c(C#N)c1[N+](=O)[O-]
inactive: dose: 100.0 mg/kg/injection, schedule: Q04DX003 (ip), vehicle: Klucel (hydroxypropylcellulose) (HPC) 98 % of control | dose: 200.0 mg/kg/injection, schedule: Q04DX003 (ip), vehicle: Klucel (hydroxypropylcellulose) (HPC) 100 % of control

O=C(CBr)Nc1ccccc1S(=O)(=O)F
inactive: dose: 4.68 mg/kg/injection, schedule: Q01DX009 (ip), vehicle: carboxymethylcellulose (CMC) 91 % of control | dose: 9.37 mg/kg/injection, schedule: Q01DX009 (ip), vehicle: carboxymethylcellulose (CMC) 91 % of control | dose: 18.75 mg/kg/injection, schedule: Q01DX009 (ip), vehicle: carboxymethylcellulose (CMC) 94 % of control | dose: 18.75 mg/kg/injection, schedule: Q04DX003 (ip), vehicle: carboxymethylcellulose (CMC) 102 % of control | dose: 37.5 mg/kg/injection, schedule: Q04DX003 (ip), vehicle: carboxymethylcellulose (CMC) 102 % of control | dose: 75.0 mg/kg/injection, schedule: Q01DX001 (ip), vehicle: carboxymethylcellulose (CMC) 96 % of control

C#CC1(OC(C)=O)CCCCC1
inactive: [1] 102 % of control | [8] 105 % of control | [2] 95 % of control | [9] 98 % of control | [3] 100 % of control | dose: 400.0 mg/kg/injection, schedule: Q04DX003 (ip), vehicle: saline with Tween-80 93 % of control

NOC(=O)C1C(c2ccccc2)C1(c1ccccc1)c1ccccc1 (stereo unspecified)
inactive: dose: 100.0 mg/kg/injection, schedule: Q01DX001 (ip), vehicle: steriod suspending solution 104 % of control | dose: 200.0 mg/kg/injection, schedule: Q01DX001 (ip), vehicle: steriod suspending solution 95 % of control | dose: 400.0 mg/kg/injection, schedule: Q01DX001 (ip), vehicle: steriod suspending solution 117 % of control

CCOC(=O)C1(Cc2ccccc2)CCCC1=O (stereo unspecified)
inactive: dose: 100.0 mg/kg/injection, schedule: Q01DX001 (ip), vehicle: carboxymethylcellulose (CMC) 107 % of control | dose: 200.0 mg/kg/injection, schedule: Q01DX001 (ip), vehicle: carboxymethylcellulose (CMC) 96 % of control | dose: 400.0 mg/kg/injection, schedule: Q01DX001 (ip), vehicle: carboxymethylcellulose (CMC) 96 % of control

O=[N+]([O-])c1ccc(N/N=C/c2cccc(CO)c2)c([N+](=O)[O-])c1
inactive: [5] 98 % of control | [6] 95 % of control | [7] 100 % of control

CSc1ccc(NC(=O)Nc2ccccc2C(F)(F)F)cc1
inactive: dose: 100.0 mg/kg/injection, schedule: Q01DX009 (ip), vehicle: other 96 % of control | dose: 200.0 mg/kg/injection, schedule: Q01DX009 (ip), vehicle: other 96 % of control | dose: 400.0 mg/kg/injection, schedule: Q01DX009 (ip), vehicle: other 95 % of control

CCOc1ccc(O)cc1
inactive: dose: 100.0 mg/kg/injection, schedule: Q04DX002 (ip), vehicle: saline + alcohol 109 % of control | dose: 200.0 mg/kg/injection, schedule: Q04DX002 (ip), vehicle: saline + alcohol 100 % of control
